Like-named read-outs stand apart in the source and are kept apart here.
Assays:
[1] = biological target: T1, Human soluble guanylate cyclase enzyme (hsGC) (Homo sapiens (Human), UniProt Q02108+Q02153); experiment: Purified human sGC enzyme activity assay; type: biochemical; settings: for sGC Enzyme (fold increase at 30 μM) / sGC Enzyme (specific activity at 30 μM) / sGC Enzyme (fold increase at 30 μM without SNP): 30 μM compound; for sGC Enzyme (fold increase at 30 μM): without the addition of SNP; for sGC Enzyme (specific activity at 10 μM) / sGC Enzyme (fold increase at 10 μM without SNP): 10 μM compound
Procedure, shortened: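 Purified human sGC (5 ng) incubated 30 min at 37° C with compound at 10 or 30 μM final in pH 8.0 Tris with 300 μM GTP, 2 mM MgCl2, 2 mM DTT and 1 mM IBMX, then stopped with cold methanol. cGMP quantified against a standard curve. Specific activity (nmol cGMP/mg sGC/min) expressed as fold-change over DMSO control.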

[2] = biological target: T1, Human soluble guanylate cyclase enzyme (hsGC); experiment: Purified human sGC enzyme synergy assay in the presence of 1 μM sodium nitroprusside (SNP); type: biochemical; settings: for sGC Enzyme (fold increase at 30 μM with SNP): 30 μM compound; for sGC Enzyme (fold increase at 10 μM with SNP): 10 μM compound
Experimental: Human soluble guanylate cyclase enzyme (hsGC) obtained from Enzo Inc. (P/N: ALX-201-177) was used to evaluate the activity of test compounds. The assay reactions contained 0.1 M Tris (pH 8.0), 0.5 mg/mL BSA (pH 8.0), 2 mM DTT, 2 mM MgCl2, 300 μM GTP, 1 mM 3-isobutyl-1-methylxanthine (IBMX) and 5 ng human soluble guanylate cyclase enzyme. Test compounds in DMSO were then added (2 μL, 10 or 30 μM final concentration) and incubated (200 μL, 96-well plate format) at 37° C. for 30 minutes. The controls were carried out using 2 μL DMSO. After the 30 minute incubation, the reaction was stopped with the addition of 200 μL of cold methanol. The plate was then centrifuged at 3,200 rpm for 10 minutes at room temperature. Supernatants (200 μL) were collected and transferred to a new 96 well plate for analysis.
An 8 point cGMP (Sigma-Aldrich P/N: G6129) standard curve was prepared in assay buffer ranging from 0.156-20 μM. Samples for the cGMP standard curve were then diluted with an equal volume of methanol resulting in final cGMP concentrations of 0.078-10 μM.
The cGMP standard curve was generated using GraphPad Prism Software.
Calculations: Specific Activity was determined by the amount of cGMP formed (nmoles) per mg of sGC per min. Enzyme “fold-change” was calculated by dividing Specific Activity for test compounds by Specific Activity of DMSO controls.
Enzyme assays were performed as described above, but was done in the presence of 1 μM sodium nitroprusside (SNP).

[3] = biological target: soluble guanylate cyclase (sGC) (Homo sapiens (Human), UniProt Q02108+Q02153); experiment: sGC-HEK-cGMP assay run with SNP incubation (HEK WC assay); type: cell-based
Procedure, shortened: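 HEK293 cells with endogenous sGC were pretreated with 0.5 mM IBMX for 15 min at 37 °C, then exposed to test compound plus sodium nitroprusside for 10 min at 37 °C.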

[4] = read-out: HEK WC Assay (% Emax at 10 μM/with 10 uM SNP)
[5] = read-out: HEK WC Assay (% Emax at 30 μM/with 10 uM SNP)
[6] = read-out: HEK WC Assay (% Emax at 10 uM/with 10 uM SNP)
[7] = read-out: HEK WC Assay (% Emax at 30 uM/with 10 uM SNP)

soluble guanylate cyclase (sGC), sequence (Q02153 whole entry): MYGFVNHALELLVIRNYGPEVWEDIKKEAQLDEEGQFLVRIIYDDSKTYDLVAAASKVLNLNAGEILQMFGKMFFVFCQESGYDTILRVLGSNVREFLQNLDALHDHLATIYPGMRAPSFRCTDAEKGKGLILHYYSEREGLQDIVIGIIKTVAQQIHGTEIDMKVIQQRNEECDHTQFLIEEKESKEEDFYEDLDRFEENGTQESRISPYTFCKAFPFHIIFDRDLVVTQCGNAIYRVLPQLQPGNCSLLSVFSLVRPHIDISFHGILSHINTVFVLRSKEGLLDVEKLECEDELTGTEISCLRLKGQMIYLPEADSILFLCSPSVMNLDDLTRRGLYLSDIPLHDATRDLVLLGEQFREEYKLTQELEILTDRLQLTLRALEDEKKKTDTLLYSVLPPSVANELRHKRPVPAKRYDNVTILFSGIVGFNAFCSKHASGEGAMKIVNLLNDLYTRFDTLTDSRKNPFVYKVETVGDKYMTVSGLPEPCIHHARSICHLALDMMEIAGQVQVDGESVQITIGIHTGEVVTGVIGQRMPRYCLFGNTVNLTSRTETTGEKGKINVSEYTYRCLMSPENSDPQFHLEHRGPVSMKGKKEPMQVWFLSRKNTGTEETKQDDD
soluble guanylate cyclase (sGC), sequence (Q02108 whole entry): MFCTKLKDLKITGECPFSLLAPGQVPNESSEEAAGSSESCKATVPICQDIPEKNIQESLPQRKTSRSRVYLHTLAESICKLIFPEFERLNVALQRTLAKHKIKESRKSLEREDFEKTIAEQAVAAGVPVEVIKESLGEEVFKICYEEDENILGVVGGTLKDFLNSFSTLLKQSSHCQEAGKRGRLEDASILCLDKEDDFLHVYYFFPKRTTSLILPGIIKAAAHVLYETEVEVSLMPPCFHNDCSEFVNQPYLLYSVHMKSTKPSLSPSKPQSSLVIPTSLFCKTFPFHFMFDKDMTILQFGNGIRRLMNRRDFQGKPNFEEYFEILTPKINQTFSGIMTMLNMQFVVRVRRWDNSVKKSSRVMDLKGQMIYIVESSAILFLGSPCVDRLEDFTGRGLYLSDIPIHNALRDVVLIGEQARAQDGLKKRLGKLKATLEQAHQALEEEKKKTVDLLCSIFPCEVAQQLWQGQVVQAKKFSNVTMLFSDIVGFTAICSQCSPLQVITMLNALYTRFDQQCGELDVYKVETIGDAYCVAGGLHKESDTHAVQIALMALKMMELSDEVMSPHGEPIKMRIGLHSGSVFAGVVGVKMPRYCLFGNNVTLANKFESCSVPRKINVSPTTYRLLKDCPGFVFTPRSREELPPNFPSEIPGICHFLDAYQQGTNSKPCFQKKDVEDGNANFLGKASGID
T1 sequence (Q02153 whole entry): as the sequence (Q02153 whole entry) above
T1 sequence (Q02108 whole entry): as the sequence (Q02108 whole entry) above

Row | Compound | sGC Enzyme (fold increase at 30 μM) [1] | sGC Enzyme (fold increase at 30 μM with SNP) ([2]; with the addition of SNP) | Emax at 10 µM [3, 4] [%] | Emax at 30 µM [3, 5] [%] | sGC Enzyme (specific activity at 10 μM) [1] | sGC Enzyme (fold increase at 10 μM without SNP) [1] | sGC Enzyme (specific activity at 30 μM) [1] | sGC Enzyme (fold increase at 30 μM without SNP) [1] | sGC Enzyme (fold increase at 10 μM with SNP) ([2]; with 1 μM SNP) | sGC Enzyme (fold increase at 30 μM with SNP) ([2]; with 1 μM SNP) | Emax at 10 µM [3, 6] [%] | Emax at 30 µM [3, 7] [%]
1 | Cn1c(=O)[nH]c2nc(-c3cc(-c4nccs4)n(Cc4ccccc4F)n3)nc(N)c21 [Compound I-96] | B (B = 2 to <5 fold increase) | C (C = 5 to <10 fold increase) | 20 to 40 | 20 to 40 | – | – | – | – | – | – | – | –
2 | Nc1nc(-c2cc(-c3ccon3)n(Cc3ccccc3F)n2)ncc1-c1ccccc1 [Compound I-122] | C (C = 5 to <10 fold increase) | D (D = 10 to <30 fold increase) | 20 to 40 | 60 to 80 | – | – | – | – | – | – | – | –
3 | Cl.Nc1cnc(-c2cc(-c3ccon3)n(Cc3ccccc3F)n2)nc1N [Compound I-107, 2-(1-(2-fluorobenzyl)-5-(isoxazol-3-yl)-1H-pyrazol-3-yl)pyrimidine-4,5-diamine hydrochloride] | B (B = 2 to <5 fold increase) | C (C = 5 to <10 fold increase) | 60 to 80 | 0 to 10 | – | – | – | – | – | – | – | –
4 | Fc1ccccc1Cn1nc(-c2ncccn2)cc1C1CC1 [Compound I-90] | A (A = no increase to <2 fold increase) | B (B = 2 to <5 fold increase) | 0 to 10 | 0 to 10 | – | – | – | – | – | – | – | –
5 | Cc1cccc(-c2cc(-c3ccccn3)nn2Cc2ccccc2F)c1 [Compound I-22] | – | – | – | – | C (C = 100 to <200) | A (A = no increase to <2 fold increase) | C (C = 100 to <200) | B (B = 2 to <5 fold increase) | A (A = no increase to <2 fold increase) | A (A = no increase to <2 fold increase) | 0 to 10 | 0 to 10
6 | N#Cc1c(-c2ccccn2)nn(Cc2ccccc2F)c1-c1ccccn1 [Compound I-54, 1-(2-fluorobenzyl)-3,5-di(pyridin-2-yl)-1H-pyrazole-4-carbonitrile] | – | – | – | – | – | A (A = no increase to <2 fold increase) | – | A (A = no increase to <2 fold increase) | A (A = no increase to <2 fold increase) | A (A = no increase to <2 fold increase) | 0 to 10 | 0 to 10
7 | Cc1ccc(-c2cc(-c3ccccn3)n(Cc3ccccc3F)n2)nc1 [Compound I-57] | – | – | – | – | B (B = 50 to <100) | A (A = no increase to <2 fold increase) | B (B = 50 to <100) | A (A = no increase to <2 fold increase) | A (A = no increase to <2 fold increase) | B (B = 2 to <5 fold increase) | 0 to 10 | 0 to 10
8 | Fc1ccccc1Cn1nc(-c2ccc(Br)cn2)cc1-c1ccccn1 [Compound I-52, 5-bromo-2-(1-(2-fluorobenzyl)-5-(pyridin-2-yl)-1H-pyrazol-3-yl)pyridine] | – | – | – | – | – | A (A = no increase to <2 fold increase) | – | A (A = no increase to <2 fold increase) | A (A = no increase to <2 fold increase) | A (A = no increase to <2 fold increase) | 0 to 10 | 0 to 10
9 | Cc1ccc(-c2c(Br)c(-c3ccccn3)nn2Cc2ccccc2F)cc1 [Compound I-67] | – | – | – | – | C (C = 100 to <200) | A (A = no increase to <2 fold increase) | D (D = 200 to <500) | A (A = no increase to <2 fold increase) | A (A = no increase to <2 fold increase) | A (A = no increase to <2 fold increase) | 0 to 10 | 0 to 10
10 | CC(C)(C)c1cnc(-c2cc(-c3ccon3)n(Cc3ccccc3F)n2)nc1N [Compound I-114] | B (B = 2 to <5 fold increase) | D (D = 10 to <30 fold increase) | 40 to 60 | 40 to 60 | – | – | – | – | – | – | – | –

Source: patent publication US10189809B2, “SGC stimulators” (Ironwood Pharmaceuticals, Inc., priority 2010, dated 2019)
